We go through seven compounds from patent US6153614A, “Piperazinyl pyrimidine dione compounds selective for adrenoceptors” (Abbott Laboratories, priority 1998, dated 2000).

Experiment [1] concerns EPI induced increase in canine IUP. Description: In vivo intraurethral pressure (IUP) in canines, inhibition of EPI induced increase. The arrangement: species or system Beagle dogs. The conditions noted are these: in vivo pseudo pA2 by Schild analysis; antagonist i.v.; epinephrine; propranolol-treated dogs; * (tamsulosin): add 0.4 if slope adjusted to 1. The procedure: The intraurethral pressure (IUP) model in aged canines is an accepted model of measuring the effect of prostate smooth muscle contraction on urethral tone. Canines also have an enclosed prostate covering the urethral shaft and thus provide an anatomical correlate with humans.
Beagle dogs (Marshall Farms) greater that 2 years of age and weighing between 12 and 15 kg were pre-anesthetized with thiopental sodium 15 mg/kg i.v. (Pentothal™, Abbott Laboratories, Abbott Park, Ill.) then placed under general anesthesia (isoflurane). A 7F Swan-Ganz balloon catheter (Multiflex-list no. 41224-01, Abbott) was lubricated with a water soluble jelly, inserted into the urethral orifice and advanced approximately 40 cm in male dogs (considerably less in females) until the balloon tip was placed well inside the bladder. The balloon was then inflated with 1 mL of room air, and the catheter was slowly withdrawn just past the first resistance that is felt at the bladder neck. Preliminary experiments in which dogs were sacrificed after such placement confirmed that this technique results in consistent positioning of the balloon within the prostatic urethra in males or the corresponding location in females. The balloon port of the catheter was connected to a Gould Statham P23Dd pressure transducer interfaced to a computerized data acquisition system (Modular Instruments, Inc., Malvern, Pa.) for the measurement of intraurethral pressure (IUP).
Dogs were then treated with propranolol to block the β-adrenoceptor agonist effects of test agonists. Dose-response curves of the intraurethral pressor effect of epinephrine (EPI) were obtained before and after each of up to 3 increasing doses of a test antagonist (i.v.). Fifteen minutes were allowed after each antagonist dose for equilibration before the next agonist dose-response was initiated. The increase in IUP caused by a given agonist dose was allowed to return to baseline before the next dose was given. The estimated antagonist dissociation constant (in vivo pseudo pA2) was determined by Schild analysis (Brune, et al., Drug Development Research, 34:267-275 (1995).

The target in experiment [2] is T1, α1b (hamster) adrenoceptor (Mesocricetus auratus, UniProt P18841).
T1 construct: expressed in transfected cells; cDNA from TULCO
T1 sequence (P18841 1-515): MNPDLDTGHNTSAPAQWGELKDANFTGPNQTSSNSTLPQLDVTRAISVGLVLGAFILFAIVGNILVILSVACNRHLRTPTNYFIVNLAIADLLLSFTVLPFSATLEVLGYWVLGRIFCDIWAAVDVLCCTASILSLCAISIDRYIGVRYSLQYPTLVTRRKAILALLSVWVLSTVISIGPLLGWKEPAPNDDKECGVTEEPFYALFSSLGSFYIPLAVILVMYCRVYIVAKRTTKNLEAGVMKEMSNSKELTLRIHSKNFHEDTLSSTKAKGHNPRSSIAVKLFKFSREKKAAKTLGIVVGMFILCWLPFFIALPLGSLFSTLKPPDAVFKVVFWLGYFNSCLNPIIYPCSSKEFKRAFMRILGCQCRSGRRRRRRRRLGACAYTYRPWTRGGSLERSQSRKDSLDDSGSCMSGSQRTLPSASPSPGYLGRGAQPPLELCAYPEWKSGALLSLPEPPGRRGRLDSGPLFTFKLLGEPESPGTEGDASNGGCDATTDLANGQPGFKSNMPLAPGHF
Description: Radioligand binding cloned α1b adrenoceptor expressed in LTK cells, [3H]-prazosin. The conditions noted are these: LTK cell membranes, [3H]prazosin 0.2 nM. The procedure: (§1) Representative compounds of the invention were evaluated for α-adrenoceptor binding affinity in vitro using [^3 H]-prazosin as the radioligand and two cloned α1 adrenoceptors expressed in LTK cells: α1b (hamster), and α1d (rat). Additionally, binding affinity against the pharmacologically defined α1A adrenoceptor (rat submaxillary gland) was measured.
(§2) The cDNA clones encoding the α-1 adrenoceptors (α1b and α1d) were obtained from TULCO (Triangle Universities Licensing Consortium, Research Triangle Park, N.C.) and inserted into the eukaryotic expression vector SnaB30. In this vector, expression of the adrenoceptor gene is under the transcriptional control of an SV40 early promoter. Positive drug selection is provided by a neomycin-resistance gene. Mouse fibroblast cells (LTK) were transfected with the α1 expression plasmids and grown in Dulbecco's modified Eagle's medium (DMEM) containing 10% fetal calf serum and […] G418. Stable G418-resistant parental lines were generated and successful expression of adrenoceptor protein was monitored using radioligand binding techniques. Stable single cell clones derived from the parental lines were screened in adrenoceptor binding assays to identify clones having high adrenoceptor density. Roller bottle cultures of the cloned lines were used to provide cell membranes for subsequent adrenoceptor binding characterization studies. A cell line containing the SnaB30 vector expressing the human erythropoietin gene served as a negative control.
For adrenoceptor binding assays, large scale membrane preparations were utilized in which 6 million cells were seeded into small (450 cm^2) Corning tissue culture roller bottles. 200 mL of DMEM containing 10% fetal calf serum and […] G418 were added to each roller bottle. A 95% air/5% CO2 gas mixture (sterile) was injected into each roller bottle prior to sealing. The bottles were incubated at 37° C. on a roller rack for 5 days. Cells were re-fed with fresh medium after 3 days in culture.
On the fifth day of culture, growth medium was removed from cells grown in the roller bottles, and the cells were washed twice with PBS (Sigma, 120 mM NaCl, 2.7 mM KCl, 10 mM Na2 HPO4 --NaH2 PO4, pH=7.4). Cells were detached from the roller bottles by incubating for 15 minutes at 37° C. in a Tris-EDTA solution (10 mM Tris, 100 mM NaCl, 1 mM EDTA, pH=7.4). The cell suspension from each roller bottle was decanted into preweighed centrifuge tubes and kept on ice. An aliquot of each cell suspension was generally taken for cell counting. Cells were centrifuged at 3000×G for 5 min at 2-4° C., washed with PBS and recentrifuged. The supernatant was decanted and the pellet was weighed to determine the wet weight of cells. Cells were washed a final time in 40 vol 5 mM Tris-HCl, 5 mM EDTA, pH=7.7, centrifuged at 40,000×G for 10 minutes, homogenized in 10 mL of 50 mM Tris-HCl, 5 mM EDTA (pH=7.4), and diluted to 40 mL/tube. Homogenates were centrifuged at 40,000×G for 10 minutes. The supernatant was decanted and the pellets were rehomogenized in 50 mM Tris-HCl (pH=7.4) and centrifuged as before.
Briefly, plastic Bioblocks™ (DBM Scientific, Valencia, Calif.) were incubated at 25° C. for 50 minutes with […] of membrane homogenate (diluted with an additional 96 volumes (for cloned adrenoceptors, 12 volumes for submaxillary gland)) in 50 mM Tris-HCl buffer (pH=7.7 at the time of assay), […] of [^3 H]prazosin (0.2 nM final concentration, 75-85 Ci/mmole, DuPont-NEN Corp., Boston, Mass.), and […] of either water (for total binding) or […] phentolamine (final concentration, for non-specific binding). Following equilibration, bound radioligand was separated from free on GF/B filters (presoaked in 0.5% polyethyleneamine) using either a Brandel or Packard cell harvester. Radioactivity was determined by standard liquid scintillation techniques.

The target in experiment [3] is T2, α1A adrenoceptor (rat submaxillary gland) (Rattus norvegicus, UniProt P43140).
T2 construct: from tissue; host or cells: rat submaxillary gland membranes
T2 sequence (P43140 1-466): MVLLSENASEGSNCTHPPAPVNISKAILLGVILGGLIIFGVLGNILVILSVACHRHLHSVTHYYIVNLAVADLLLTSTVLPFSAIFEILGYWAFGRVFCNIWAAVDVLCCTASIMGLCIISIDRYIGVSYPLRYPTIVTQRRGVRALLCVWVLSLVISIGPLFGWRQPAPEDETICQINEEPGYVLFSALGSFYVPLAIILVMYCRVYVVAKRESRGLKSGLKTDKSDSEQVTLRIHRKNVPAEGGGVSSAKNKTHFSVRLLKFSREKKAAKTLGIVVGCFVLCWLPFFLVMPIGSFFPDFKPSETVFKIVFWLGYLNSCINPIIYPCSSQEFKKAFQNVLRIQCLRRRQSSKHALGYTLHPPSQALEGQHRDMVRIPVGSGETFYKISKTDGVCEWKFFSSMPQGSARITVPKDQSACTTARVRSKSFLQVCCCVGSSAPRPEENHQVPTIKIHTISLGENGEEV
Description: Radioligand binding α1A (rat submaxillary gland), [3H]-prazosin. Here is the method:
as §1
On the fifth day of culture, growth medium was removed from cells grown in the roller bottles, and the cells were washed twice with PBS (Sigma, 120 mM NaCl, 2.7 mM KCl, 10 mM Na2 HPO4 --NaH2 PO4, pH=7.4). Cells were detached from the roller bottles by incubating for 15 minutes at 37° C. in a Tris-EDTA solution (10 mM Tris, 100 mM NaCl, 1 mM EDTA, pH=7.4). […]
Briefly, plastic Bioblocks™ (DBM Scientific, Valencia, Calif.) were incubated at 25° C. for 50 minutes with […] of membrane homogenate (diluted with an additional 96 volumes (for cloned adrenoceptors, 12 volumes for submaxillary gland)) in 50 mM Tris-HCl buffer (pH=7.7 at the time of assay), […] of [^3 H]prazosin (0.2 nM final concentration, 75-85 Ci/mmole, DuPont-NEN Corp., Boston, Mass.), and […] of either water (for total binding) or […] phentolamine (final concentration, for non-specific binding). […] Radioactivity was determined by standard liquid scintillation techniques.

For experiment [4], the target named is T3, α1d (rat) adrenoceptor (Rattus norvegicus, UniProt P23944).
T3 construct: expressed in transfected cells; cDNA from TULCO
T3 sequence (P23944 1-561): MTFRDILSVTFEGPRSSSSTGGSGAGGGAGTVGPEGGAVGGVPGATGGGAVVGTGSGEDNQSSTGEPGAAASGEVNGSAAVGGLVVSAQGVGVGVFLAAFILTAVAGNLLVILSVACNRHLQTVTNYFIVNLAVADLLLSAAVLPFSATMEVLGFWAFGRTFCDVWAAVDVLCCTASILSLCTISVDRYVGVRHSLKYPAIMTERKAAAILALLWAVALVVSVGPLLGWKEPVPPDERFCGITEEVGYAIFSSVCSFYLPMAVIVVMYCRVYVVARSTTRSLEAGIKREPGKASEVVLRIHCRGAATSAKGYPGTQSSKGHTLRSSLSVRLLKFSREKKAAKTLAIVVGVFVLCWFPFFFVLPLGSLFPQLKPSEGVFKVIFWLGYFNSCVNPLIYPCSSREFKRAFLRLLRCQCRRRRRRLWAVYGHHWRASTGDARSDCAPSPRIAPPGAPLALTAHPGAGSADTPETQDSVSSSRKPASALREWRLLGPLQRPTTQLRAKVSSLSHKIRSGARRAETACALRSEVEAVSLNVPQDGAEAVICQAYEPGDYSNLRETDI
Description: Radioligand binding cloned α1d adrenoceptor expressed in LTK cells, [3H]-prazosin. As to conditions: LTK cell membranes, [3H]prazosin 0.2 nM. The procedure:
as §1
as §2, with “A cell line containing the SnaB30 vector expressing the human erythropoietin gene served as a negative control.” left out

What is called Ki is the equilibrium dissociation constant of an inhibitor or competing ligand from its target. A high value points to lower affinity. On to `COc1ccccc1N1CCN(CCn2c(=O)[nH]c3scc(-c4ccccc4)c3c2=O)CC1` [Example 1, 3-[4-(2-methoxyphenyl)piperazinylethyl]-5-phenylthieno[2,3-d]pyrimidine-2,4-dione], for which the “IUP (pA2)” value in experiment [1] worked out at 7.95. The same compound came in with a Ki in experiment [2] of 3.41 nM. As to `COc1ccccc1N1CCN(CCn2c(=O)[nH]c3sc(C)c(-c4ccccc4)c3c2=O)CC1` [Example 2, 3-[4-(2-methoxyphenyl)piperazinylethyl]-6-methyl-5-phenylthieno[2,3-d]pyrimidine-2,4-dione], in experiment [2], affinity was put at a Ki of 2.44 nM. Turning to `COc1ccccc1N1CCN(CCn2c(=O)c3c(-c4ccccc4)csc3n(C)c2=O)CC1` [Example 3, 3-[4-(2-methoxyphenyl)piperazinylethyl]-1-methyl-5-phenylthieno[2,3-d]pyrimidine-2,4-dione], in experiment [2], affinity was put at a Ki of 4.47 nM. In experiment [2], `COc1ccccc1N1CCN(CCn2c(=O)[nH]c3scc(-c4cccc(C)c4)c3c2=O)CC1` [Example 4, 3-[4-(2-methoxyphenyl)piperazinylethyl]-5-(3-methylphenyl)thieno[2,3-d]pyrimidine-2,4-dione] gave a Ki of 2.74 nM. Regarding `COc1ccccc1N1CCN(CCn2c(=O)[nH]c3sc(-c4ccccc4)cc3c2=O)CC1` [Example 5, 3-[4-(2-methoxyphenyl)piperazinylethyl]-6-phenylthieno[2,3-d]pyrimidine-2,4-dione], in experiment [1], the “IUP (pA2)” value is 8.47. This compound returned a Ki in experiment [2] of 1.86 nM. With `CCOc1ccccc1OCCN[C@H](C)Cc1ccc(OC)c(S(N)(=O)=O)c1` [tamsulosin, reference compound], in experiment [1], the “IUP (pA2)” value is listed as 8.91. In addition, the values for the Ki in experiment [2] and in experiment [3] were 0.204 nM and 0.028 nM, respectively. Regarding `COc1cc2nc(N3CCN(C(=O)C4CCCO4)CC3)nc(N)c2cc1OC` (stereo not drawn) [terazosin, reference compound], affinity in experiment [4] was put at a Ki of 1.01 nM. The “IUP (pA2)” value in experiment [1] is recorded as 6.97.
